This is an account of results in ChEMBL document CHEMBL4622851, “Cytotoxicity of 4-substituted quinoline derivatives: Anticancer and antileishmanial potential” (Bioorg Med Chem, 2020).

The target in experiment [1] is T1, Cysteine proteinase B (Leishmania mexicana, UniProt P36400). Kind of experiment: Inhibition of Leishmania mexicana rCPB2.8 using Z-FR-AMC as substrate by spectrofluorometric analysis.
A short description of experiment [2]: Inhibition of Leishmania mexicana rCPB3.0 H84Y mutant assessed as inhibition constant using Z-FR-AMC as substrate preincubated for 10 mins followed by substrate addition by Lineweaver-Burk double reciprocal plot analysis.
The target of experiment [3] is Cysteine proteinase B (Leishmania mexicana) (UniProt P36400). Briefly: Inhibition of Leishmania mexicana rCPB2.8 assessed as inhibition constant for uncompetitive inhibition using Z-FR-AMC as substrate preincubated for 10 mins followed by substrate addition by Lineweaver-Burk double reciprocal plot analysis.
Chain of Cysteine proteinase B (Leishmania mexicana) (P36400 126-443 limits assumed): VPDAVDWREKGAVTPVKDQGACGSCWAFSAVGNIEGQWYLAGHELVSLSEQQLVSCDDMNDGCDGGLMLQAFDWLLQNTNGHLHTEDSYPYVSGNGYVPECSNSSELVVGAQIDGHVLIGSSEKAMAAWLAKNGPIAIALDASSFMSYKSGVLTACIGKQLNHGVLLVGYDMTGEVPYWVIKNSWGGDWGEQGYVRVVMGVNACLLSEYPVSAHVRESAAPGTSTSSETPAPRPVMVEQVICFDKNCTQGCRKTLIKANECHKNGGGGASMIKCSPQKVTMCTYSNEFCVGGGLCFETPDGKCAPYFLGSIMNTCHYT
Experiment [4] concerns SK-MEL-147. Briefly: Cytotoxicity against human SK-MEL-147 cells assessed as reduction in cell viability at 50 and 100 uM after 24 hrs by MTT assay. The experiment is classed as functional, cell-based.
Experiment [5] is described as follows: Inhibition of Leishmania mexicana rCPB3.0 assessed as inhibition constant using Z-FR-AMC as substrate preincubated for 10 mins followed by substrate addition by Lineweaver-Burk double reciprocal plot analysis.
For experiment [6], the system named is Leishmania mexicana. Briefly: Inhibition of Leishmania mexicana rCPB3.0 assessed as inhibition constant for uncompetitive inhibition using Z-FR-AMC as substrate preincubated for 10 mins followed by substrate addition by Lineweaver-Burk double reciprocal plot analysis.
Experiment [7] relates to Jurkat. Kind of experiment: Cytotoxicity against human Jurkat cells assessed as reduction in cell viability at 50 and 100 uM after 24 hrs by MTT assay. In kind it is functional, cell-based. (Tetrazolium assays rely on reduction of a dye to a coloured formazan, in cell work by metabolically active cells.)
Experiment [8] addresses T1, Cysteine proteinase B. Kind of experiment: Inhibition of Leishmania mexicana rCPB2.8 assessed as inhibition constant using Z-FR-AMC as substrate preincubated for 10 mins followed by substrate addition by Lineweaver-Burk double reciprocal plot analysis.
The nature of experiment [9]: Inhibition of Leishmania mexicana rCPB3.0 using Z-FR-AMC as substrate by spectrofluorometric analysis.
The test system of experiment [10] is Jurkat. Kind of experiment: Cytotoxicity against human Jurkat cells assessed as reduction in cell viability after 24 hrs by MTT assay. In kind it is functional, cell-based.
Experiment [11] in a line: Inhibition of Leishmania mexicana rCPB3.0 H84Y mutant using Z-FR-AMC as substrate by spectrofluorometric analysis.
Experiment [12] relates to Leishmania mexicana. Kind of experiment: Inhibition of Leishmania mexicana rCPB3.0 H84Y mutant assessed as inhibition constant for uncompetitive inhibition using Z-FR-AMC as substrate preincubated for 10 mins followed by substrate addition by Lineweaver-Burk double reciprocal plot analysis.
Experiment [13] relates to SK-MEL-147. Briefly: Cytotoxicity against human SK-MEL-147 cells assessed as reduction in cell viability after 24 hrs by MTT assay. In kind it is functional, cell-based. Conditions: SK-MEL-147, 24 h.
Experiment [14] deals with SK-MEL-147. Briefly: Induction of apoptosis in human SK-MEL-147 cells assessed as early apoptotic cells at 20 uM after 24 hrs by Annexin V-FITC/propidium iodide staining based flow cytometry. The experiment is classed as functional, cell-based. (Flow cytometry measures light scatter and fluorescence of single cells or particles in a stream.)
In experiment [15] the test system is SK-MEL-147. Briefly: Cytotoxicity against human SK-MEL-147 cells assessed as reduction in cell viability at EC50 concentration preincubated for 1 hr in presence of N-acetyl cysteine measured after 24 hrs by MTT assay. The experiment is classed as functional, cell-based.
Experiment [16] relates to SK-MEL-147. Briefly: Cytotoxicity against human SK-MEL-147 cells assessed as reduction in cell viability at EC50 concentration preincubated for 1 hr in presence of DTT measured after 24 hrs by MTT assay. The experiment is classed as functional, cell-based.
Experiment [17] deals with SK-MEL-147. Kind of experiment: Cytotoxicity against human SK-MEL-147 cells assessed as reduction in cell viability in presence of BCL2 inhibitor venetoclax. In kind it is functional, cell-based.
Experiment [18] deals with SK-MEL-147. Briefly: Induction of apoptosis in human SK-MEL-147 cells assessed as increase in BAX expression at 20 uM after 24 hrs by western blotting analysis. The experiment is classed as functional, cell-based. A general note: In western blotting, separated proteins are transferred to a membrane and probed.
The subject of experiment [19] is SK-MEL-147. Briefly: Induction of apoptosis in human SK-MEL-147 cells assessed as late apoptotic cells at 20 uM after 24 hrs by Annexin V-FITC/propidium iodide staining based flow cytometry. In kind it is functional, cell-based.
For experiment [20], the system named is SK-MEL-147. Kind of experiment: Induction of apoptosis in human SK-MEL-147 cells assessed mitochondrial permeabilization after 24 hrs by mitotracker green staining based microscopic analysis. In kind it is functional, cell-based.
For experiment [21], the species on record is Rattus norvegicus. Kind of experiment: Induction of mitochondrial permeabilization in rat liver mitochondria assessed as mitochondrial transmembrane potential dissipation by rhodamine-123 dye based spectrofluorometer analysis. In kind it is functional.
Experiment [22] is filed under the species Rattus norvegicus. Briefly: Induction of mitochondrial permeabilization in rat liver mitochondria assessed as mitochondrial transmembrane potential dissipation in presence of ADP by rhodamine-123 dye based spectrofluorometer analysis. In kind it is functional.
The test system of experiment [23] is SK-MEL. Briefly: Cytotoxicity against human SK-MEL-147 cells assessed as reduction in cell viability at EC50 concentration preincubated for 1 hr in presence of BAPTA measured after 24 hrs by MTT assay. The experiment is classed as functional, cell-based.
Experiment [24] concerns SK-MEL-147. Briefly: Cytotoxicity against human SK-MEL-147 cells assessed as reduction in cell viability at EC50 concentration preincubated for 1 hr in presence of GSH measured after 24 hrs by MTT assay. In kind it is functional, cell-based.
In experiment [25] the test system is SK-MEL-147. Briefly: Cytotoxicity against human SK-MEL-147 cells assessed as reduction in cell viability at EC50 concentration preincubated for 1 hr in presence of Boc-D-FMK measured after 24 hrs by MTT assay. The experiment is classed as functional, cell-based.
A further experiment deals with Cathepsin B (Homo sapiens, UniProt P07858). Briefly: Inhibition of cathepsin B (unknown origin) using Z-FR-AMC as substrate by spectrofluorometric analysis.
Experiment [26] has as its system SK-MEL-147. Kind of experiment: Cytotoxicity against human SK-MEL-147 cells assessed as reduction in cell viability at EC50 concentration preincubated for 1 hr in presence of E-64 measured after 24 hrs by MTT assay. The experiment is classed as functional, cell-based.
Experiment [27] relates to SK-MEL-147. Briefly: Induction of apoptosis in human SK-MEL-147 cells assessed as increase in reactive oxygen species generation by CM-H2DCFDA staining based flow cytometric analysis. The experiment is classed as functional, cell-based.
The species named for experiment [28] is Rattus norvegicus. Kind of experiment: Induction of mitochondrial permeabilization in rat liver mitochondria assessed as mitochondrial transmembrane potential dissipation in presence of DTT by rhodamine-123 dye based spectrofluorometer analysis. The experiment is classed as functional.
The species named for experiment [29] is Rattus norvegicus. Kind of experiment: Induction of mitochondrial permeabilization in rat liver mitochondria assessed as calcium efflux in presence of ADP by calcium green based spectrofluorometer analysis. The experiment is classed as functional.
The species named for experiment [30] is Rattus norvegicus. Kind of experiment: Induction of mitochondrial permeabilization in rat liver mitochondria assessed as calcium efflux in presence of DTT by calcium green based spectrofluorometer analysis. In kind it is functional.
Experiment [31] concerns SK-MEL-147. Kind of experiment: Induction of apoptosis in human SK-MEL-147 cells assessed as mitochondrial membrane potential dissipation after 24 hrs by TMRM staining based fluorescence microscopic method. The experiment is classed as functional, cell-based.
Experiment [32] has as its system SK-MEL-147. Kind of experiment: Induction of apoptosis in human SK-MEL-147 cells assessed as necrotic cells at 20 uM after 24 hrs by Annexin V-FITC/propidium iodide staining based flow cytometry. The experiment is classed as functional, cell-based.
For experiment [33], the species on record is Rattus norvegicus. Briefly: Induction of mitochondrial permeabilization in rat liver mitochondria assessed as mitochondrial transmembrane potential dissipation in presence of CsA by rhodamine-123 dye based spectrofluorometer analysis. The experiment is classed as functional.
Experiment [34] deals with SK-MEL-147. Briefly: Induction of apoptosis in human SK-MEL-147 cells assessed as effect on BCL-2 protein expression at 20 uM after 24 hrs by western blotting analysis. In kind it is functional, cell-based.
Another experiment deals with Procathepsin L (Homo sapiens, UniProt P07711). Kind of experiment: Inhibition of cathepsin L (unknown origin) using Z-FR-AMC as substrate by spectrofluorometric analysis.
Chain of Procathepsin L (P07711 whole entry): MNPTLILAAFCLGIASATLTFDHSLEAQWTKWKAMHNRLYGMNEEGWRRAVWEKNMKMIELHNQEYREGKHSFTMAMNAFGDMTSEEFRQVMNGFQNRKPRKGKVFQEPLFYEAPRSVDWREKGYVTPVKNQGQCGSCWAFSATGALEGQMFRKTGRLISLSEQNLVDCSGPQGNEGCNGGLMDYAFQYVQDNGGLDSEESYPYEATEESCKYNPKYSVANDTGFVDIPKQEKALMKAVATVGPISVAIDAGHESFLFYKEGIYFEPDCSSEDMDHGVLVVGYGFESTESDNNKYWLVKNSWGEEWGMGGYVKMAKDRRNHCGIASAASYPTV
The species named for experiment [35] is Rattus norvegicus. Kind of experiment: Induction of mitochondrial permeabilization in rat liver mitochondria assessed as calcium efflux by calcium green based spectrofluorometer analysis. The experiment is classed as functional.
Experiment [36] has as its system SK-MEL. Briefly: Cytotoxicity against human SK-MEL-147 cells assessed as reduction in cell viability at EC50 concentration preincubated for 1 hr in presence of EGTA measured after 24 hrs by MTT assay. The experiment is classed as functional, cell-based.
For experiment [37], the species on record is Rattus norvegicus. Kind of experiment: Induction of mitochondrial permeabilization in rat liver mitochondria assessed as calcium efflux in presence of CsA by calcium green based spectrofluorometer analysis. In kind it is functional.

SMILES strings stand for the structures. Calls of active or inactive are those of the source. The calls are words filed in the database; no cut-off is given here.

T1 sequence (P36400 whole entry): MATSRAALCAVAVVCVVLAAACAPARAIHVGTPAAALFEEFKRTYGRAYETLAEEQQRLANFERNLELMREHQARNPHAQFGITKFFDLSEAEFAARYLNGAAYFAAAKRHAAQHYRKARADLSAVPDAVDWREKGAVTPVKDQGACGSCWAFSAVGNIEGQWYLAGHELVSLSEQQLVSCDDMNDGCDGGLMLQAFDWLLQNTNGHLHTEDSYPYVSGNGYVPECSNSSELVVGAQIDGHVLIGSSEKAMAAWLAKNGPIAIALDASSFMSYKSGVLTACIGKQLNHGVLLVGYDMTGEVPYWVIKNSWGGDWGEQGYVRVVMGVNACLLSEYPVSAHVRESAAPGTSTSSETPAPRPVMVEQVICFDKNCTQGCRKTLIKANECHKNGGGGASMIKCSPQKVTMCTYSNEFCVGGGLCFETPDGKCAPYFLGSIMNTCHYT

Turning to `COc1ccc([Se]c2cc(-c3ccc(O)cc3)nc3ccc(OC)cc23)cc1`, the IC50 on Cysteine proteinase B [1] came out at 3.6 µM; in experiment [9] it was 5.78 µM; in experiment [11], 12.4 µM. Further, the Ki was 18.3 µM in experiment [2], 18.5 µM in experiment [5] and 21.7 µM at Cysteine proteinase B [8]. The alphaKi in experiment [3] turned out to be 22.1 µM; with Leishmania mexicana [6] it was 18.6 µM; in the experiment with Leishmania mexicana [12], 18.4 µM. Besides, the outcome in the experiment with SK-MEL-147 [4] and with Jurkat [7] was Active. The EC50 was determined as 41.5 µM in the experiment with Jurkat [10] and 59.2 µM in the experiment with SK-MEL-147 [13].

Take `CCOC(=O)c1cc([Se]c2ccccc2)c2cc(C)ccc2n1`: the outcome with SK-MEL-147 [14], with SK-MEL-147 [17], in the experiment on SK-MEL-147 [18], with SK-MEL-147 [19], with SK-MEL-147 [4] and in the experiment on SK-MEL-147 [20] was Active. In addition, the result in the experiment filed under Rattus norvegicus [21], with SK-MEL-147 [25], with SK-MEL-147 [26], with SK-MEL-147 [27], with Jurkat [7] and in the experiment on SK-MEL-147 [31] was Active. Further, the outcome in the experiment with SK-MEL-147 [32] and in the experiment filed under Rattus norvegicus [35] was Active. Also, the result with SK-MEL-147 [15], in the experiment with SK-MEL-147 [16], in the experiment filed under Rattus norvegicus [22], in the experiment with SK-MEL [23], with SK-MEL-147 [24] and in the experiment listed under Rattus norvegicus [28] was inactive. Also, the result in the experiment filed under Rattus norvegicus [29], in the experiment listed under Rattus norvegicus [30], in the experiment filed under Rattus norvegicus [33], in the experiment with SK-MEL-147 [34], in the experiment on SK-MEL [36] and in the experiment filed under Rattus norvegicus [37] was inactive. For the same compound, the half-inhibitory concentration (IC50) entry at Cathepsin B and on Procathepsin L was “Not Active” throughout. The EC50 in the experiment on Jurkat [10] was determined as 15.3 µM; in the experiment on SK-MEL-147 [13], 12 µM.

The IC50 is the concentration at which inhibition is half-maximal. Read a high IC50 as a need for much substance. Usually Ki stands for the dissociation constant of the complex between target and ligand, obtained from inhibition or displacement. As a reminder, the EC50 is the concentration needed to bring the measured effect to its halfway point.
